# Measurements as given in publication PMC3933800, “Synthesis, Anti-Inflammatory and Anti- Nociceptive Activities and Cytotoxic Effect of Novel Thiazolidin-4-ones Derivatives as Selective Cyclooxygenase (COX-2) Inhibitors” (Iranian Journal of Basic Medical Sciences, 2013).
# Key:
# [1] = target: T1, ovine COX-1 (Ovis aries, UniProt P05979); test: biochemical; conditions: mean of two determinations
# T1 construct: purchased Cayman Chemical Company 760111
# T1 sequence (P05979 25-600): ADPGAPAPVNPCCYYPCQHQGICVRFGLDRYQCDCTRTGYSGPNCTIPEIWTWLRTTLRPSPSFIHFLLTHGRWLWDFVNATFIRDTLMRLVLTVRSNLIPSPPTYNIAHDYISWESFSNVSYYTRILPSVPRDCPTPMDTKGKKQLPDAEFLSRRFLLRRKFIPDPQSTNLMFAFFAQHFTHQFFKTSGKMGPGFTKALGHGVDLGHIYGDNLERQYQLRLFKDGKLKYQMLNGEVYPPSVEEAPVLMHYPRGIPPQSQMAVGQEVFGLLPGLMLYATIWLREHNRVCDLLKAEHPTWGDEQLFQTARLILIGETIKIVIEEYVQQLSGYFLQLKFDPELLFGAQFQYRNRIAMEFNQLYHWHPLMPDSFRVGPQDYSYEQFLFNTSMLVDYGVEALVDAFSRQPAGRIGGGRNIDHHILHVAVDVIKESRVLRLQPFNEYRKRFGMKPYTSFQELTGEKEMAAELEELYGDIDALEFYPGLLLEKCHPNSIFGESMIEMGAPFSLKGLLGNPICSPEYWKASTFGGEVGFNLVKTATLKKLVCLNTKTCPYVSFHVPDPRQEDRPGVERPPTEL
# From the text: (§1) The same kit for determination of COX-1 and COX-2 inhibition was used by us previously ([11]).
# [2] = target: T2, ovine COX-2 (Ovis aries, UniProt P79208); test: biochemical; conditions: mean of two determinations
# T2 construct: purchased Cayman Chemical Company 760111
# T2 sequence (P79208 17-603): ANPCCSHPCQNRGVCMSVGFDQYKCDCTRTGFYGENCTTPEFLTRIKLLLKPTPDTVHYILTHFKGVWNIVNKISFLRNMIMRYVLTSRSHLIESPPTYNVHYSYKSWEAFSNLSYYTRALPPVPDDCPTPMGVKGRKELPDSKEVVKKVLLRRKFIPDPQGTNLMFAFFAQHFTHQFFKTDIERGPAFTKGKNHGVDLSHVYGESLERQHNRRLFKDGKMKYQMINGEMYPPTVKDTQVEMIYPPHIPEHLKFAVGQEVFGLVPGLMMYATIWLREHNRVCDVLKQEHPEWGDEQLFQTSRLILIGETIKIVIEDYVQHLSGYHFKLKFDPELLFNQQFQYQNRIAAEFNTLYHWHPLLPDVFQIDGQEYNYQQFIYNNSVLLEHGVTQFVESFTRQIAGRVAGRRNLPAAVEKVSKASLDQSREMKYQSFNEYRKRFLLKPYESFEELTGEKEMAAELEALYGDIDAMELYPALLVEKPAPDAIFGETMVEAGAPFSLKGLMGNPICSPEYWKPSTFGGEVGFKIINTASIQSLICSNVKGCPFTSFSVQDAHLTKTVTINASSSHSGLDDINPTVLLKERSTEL
# From the text: as §1
# [3] = system: Caco-2 (human colorectal cancer); test: MTT cytotoxicity assay, Caco-2; format: cell-based; conditions: means of three experiments, 24 hr, read-out: IC50 Caco-2 (anti-proliferative activity)
# Procedure: (§2) Human tumor cell lines of two different histological origins were used: Caco-2 (human colorectal cancer) and MCF-7 (human breast cancer) which were purchased from the National Cell bank of Pasteur Institute of Iran, Tehran, Iran.
# (§3) Stock cell cultures were grown in RPMI 1640 medium (Gibco, USA) supplemented with 10% fetal bovine serum (FBS) and 100 unit per ml of penicillin-streptomycin (Sigma, USA) at 37°C in humidified incubator with 5% CO2 atmosphere. After three day incubation, the cells were detached using 0.25% Trypsin-0.05% EDTA solution (Biogene, Iran), and resuspended in RPMI 1640 medium containing 10% FBS. Cell count and viability was determined by Trypan blue staining followed by hemocytometry.
# (§4) After incubation periods, 3-(4,5-Dimethylthiazol-2-yl)-2,5-diphenyltetrazolium bromide , MTT (Sigma, USA) was added to each well at the concentration of 0.5 mg/ml. Subsequently, microtiter plate was incubated for an additional 3 hr at 37°C and each medium was then removed prior to the addition of dimethyl sulfoxide to dissolve the formazan crystal formed by viable cells.
# [4] = system: MCF-7 (human breast cancer); test: MTT cytotoxicity assay, MCF-7; format: cell-based; conditions: MCF7, means of three experiments, 24 hr, read-out: IC50 MCF-7 (anti-proliferative activity)
# Procedure: as §2, §3, §4
# [5] = system: Caco-2 cells; format: cell-based; conditions: IC50 concentration, 24 hr; untreated control 9.9
# Procedure: (§5) A suspension of untreated Caco-2 or MCF-7cells (1×10^6 cells/ml) was used as negative control. Both control and test samples of cell cultures were incubated for 24 hr at 37°C and 5% CO2 atmosphere. After 24 hr incubation, adherent cells were collected, washed three times with phosphate-citrate buffer (0.2 M, pH 7.8) and fixed for 24 hr with cool ethanol at 4°C. Propidium iodide was then added to a final concentration of 50 µg/ml for DNA staining and the cells were incubated and light protected at room temperature for 3 hr. The fluorescence of the cells was analyzed in a FACScan flow cytometer (Becton Dickinson, USA). The obtained cytometric data were analyzed using WinMDI 2.8 software (The Scripps Research Institute, USA).
# [6] = system: mice; test: Acetic acid-induced writhing test; format: in vivo, BALB/c mice; conditions: Mus musculus, IP, acetic acid 0.7% 1 hr after compound, writhing counted 30 min
# Procedure: (§6) Animal experiments were carried out using 20-30 g male BALB/c mice purchased from Razi Institute, Mashhad, Iran. Animals were kept in plastic cages at room temperature of 21±2°C and 12 hr light/dark cycle. All experiments were performed according to the National Institute of Health guidelines for the care and use of laboratory animals and to the European Community Directive for the Care and use of Laboratory Animals of 1986 (86/609/EEC), and approved by our Institution’s Animal Care Committee.
# The nociceptive responses in mice were investigated using writhing test. […] The number of abdominal constrictions (writhing episode) seen in treated animals was counted during a 30 min period ([12]). Celecoxib and normal saline was respectively used as positive and negative control.
# [7] = system: mice; test: Xylene-induced ear edema test; format: in vivo, BALB/c mice; conditions: Mus musculus, IP 30 min before xylene, ears weighed after 2 hr
# Procedure: as §6
# The effect of the analogues against acute inflammation was studied using xylene-induced ear edema test in mice.
# Thirty minutes later, edema was induced in each group by applying 0.03 ml of xylene to the inner surface of the right ear. After 2 hr, the mice were sacrificed under ether anesthesia and both ears were removed, sized and weighed. The increase in weight caused by the irritant was measured by subtracting the weight of the untreated left ear section from that of the treated right ear sections ([12]).
# [8] = system: MCF-7 cells; test: Apoptosis assay (propidium iodide flow cytometry, sub-diploid cells), MCF-7; format: cell-based, human; conditions: IC50 concentration, 24 hr; untreated control 12.26
# Procedure: as §5
SMILES,IC50 [1],IC50 [2],IC50 [3],IC50 [4],"Apoptosis% (percent sub-diploid cells), Caco-2 [5]",ED50 [6],ED50 [7],melting point,"Apoptosis% (percent sub-diploid cells), MCF-7 [8]"
"CSc1ncc(C2SCC(=O)N2c2ccc(Cl)cc2)n1Cc1ccccc1 (centres unmarked) [2a, 2-(1-benzyl-2-methylthio-5-imidazolyl)-3-(4-chloro-phenyl)-1,3-thiazolidin-4-ones]",15.6 µM,0.82 µM,106 µM,121 µM,35%,15.1 mg/kg,68.3 mg/kg,95 to 96 °C,–
"Cc1ccc(-c2cc(C(F)(F)F)nn2-c2ccc(S(N)(=O)=O)cc2)cc1 [Celecoxib, celecoxib, reference compound]",–,–,50.1 µM,76.3 µM,60%,–,–,–,59.1%
"CSc1ncc(C2SCC(=O)N2c2ccc(Cl)cc2)n1Cc1ccc(F)cc1 (centres unmarked) [2c, 2-[1-(4-fluorobenzyl)-2-methylthio-5-imidazolyl]-3-(4-chlorophenyl)-1,3-thiazolidin-4-ones]",–,–,–,–,–,8.76 mg/kg,64 mg/kg,94 to 95 °C,–
"CCSc1ncc(C2SCC(=O)N2c2ccc(Cl)cc2)n1Cc1ccccc1 (centres unmarked) [2b, 2-(1-benzyl-2-ethylthio-5-imidazolyl)-3-(4-chloro-phenyl)-1,3-thiazolidin-4-one]",–,0.71 µM,82.3 µM,110 µM,54.4%,39.9 mg/kg,73.6 mg/kg,97 to 98 °C,45.9%
